Assay results published in ChEMBL document CHEMBL1201862, “PubChem BioAssay data set” (2004).
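Following 48 hours of exposure in 96-well plates, responses at five concentrations were used to interpolate endpoints linearly. Here, GI50 denotes the concentration required for 50% inhibition of growth.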 Activity calls are given as the source filed them. Rule as the data show it: active = GI50 up to about 1.1 µM and inactive = higher.

Legend:
Assay in all cases: NCI anticancer screen, dose series, 48 h
UACC-62 = system: UACC-62
SR = system: SR
SK-MEL-28 = system: SK-MEL-28
SNB-19 = system: SNB-19
MOLT-4 = system: MOLT-4
OVCAR-5 = system: OVCAR-5
ACHN = system: ACHN
HCC 2998 = system: HCC 2998
786-0 = system: 786-0
BT-549 = system: BT-549
NCI-H522 = system: NCI-H522
Malme-3M = system: Malme-3M
SK-MEL-2 = system: SK-MEL-2
NCI-H226 = system: NCI-H226
MDA-N = system: MDA-N
RPMI-8226 = system: RPMI-8226
MDA-MB-231 = system: MDA-MB-231
MCF7 = system: MCF7
CCRF-CEM = system: CCRF-CEM
HCT-116 = system: HCT-116

Measured: GI50

COc1cc(C(=O)Oc2ccc3c(c2)OCO3)cc(OC)c1OC
inactive: UACC-62 > 100 µM | SR > 100 µM | SK-MEL-28 > 100 µM | SNB-19 > 100 µM | MOLT-4 > 100 µM | OVCAR-5 > 100 µM | ACHN > 100 µM | HCC 2998 > 100 µM | 786-0 > 100 µM | BT-549 > 100 µM | NCI-H522 > 100 µM | Malme-3M > 100 µM | SK-MEL-2 > 100 µM | NCI-H226 > 100 µM | MDA-N > 100 µM | RPMI-8226 > 100 µM | MDA-MB-231 > 100 µM | MCF7 > 100 µM

NC(=O)c1cc2ccc(O)cc2o/c1=N/c1ccccc1
inactive: UACC-62 28.5 µM | SR 16.1 µM | CCRF-CEM 37.5 µM | SK-MEL-28 35.6 µM | SNB-19 36 µM | MOLT-4 29 µM | OVCAR-5 67.9 µM | ACHN 24.9 µM | HCC 2998 22.2 µM | HCT-116 24.4 µM | 786-0 30.3 µM | BT-549 24.4 µM | NCI-H522 17.8 µM | Malme-3M 50.8 µM | SK-MEL-2 17.2 µM | NCI-H226 17.1 µM | MDA-N 22.5 µM | RPMI-8226 20.7 µM | MDA-MB-231 67.8 µM | MCF7 31.2 µM

OCCn1cnc2c(SCc3ccccc3)ncnc21
inactive: UACC-62 > 100 µM | SR 19.5 µM | CCRF-CEM 39.1 µM | SK-MEL-28 > 100 µM | SNB-19 > 100 µM | OVCAR-5 > 100 µM | ACHN > 100 µM | HCC 2998 > 100 µM | HCT-116 48.8 µM | 786-0 > 100 µM | BT-549 95.7 µM | NCI-H522 97.9 µM | Malme-3M > 100 µM | SK-MEL-2 > 100 µM | NCI-H226 > 100 µM | MDA-N > 100 µM | RPMI-8226 97.5 µM | MDA-MB-231 > 100 µM | MCF7 > 100 µM

C/C(=N\N)C(CN1CCOCC1)C(c1ccccc1)c1c(O)c2ccccc2oc1=O (stereo not drawn)
inactive: SR 46 µM | CCRF-CEM 23.3 µM | SK-MEL-28 > 100 µM | SNB-19 > 100 µM | MOLT-4 40.5 µM | OVCAR-5 > 100 µM | ACHN > 100 µM | HCC 2998 > 100 µM | HCT-116 > 100 µM | 786-0 > 95.1 µM | BT-549 32.3 µM | NCI-H522 > 52 µM | Malme-3M > 64.7 µM | SK-MEL-2 > 100 µM | NCI-H226 > 100 µM | MDA-N > 100 µM | RPMI-8226 > 67.1 µM | MDA-MB-231 91 µM | MCF7 56 µM

COc1cc(OC)c(C2(c3c(OC(C)C)c(=O)c3=O)SCCCS2)cc1OC
inactive: UACC-62 > 100 µM | SR > 100 µM | CCRF-CEM > 100 µM | SK-MEL-28 > 100 µM | SNB-19 > 100 µM | OVCAR-5 > 100 µM | ACHN > 100 µM | HCC 2998 > 100 µM | HCT-116 > 100 µM | 786-0 > 100 µM | BT-549 > 100 µM | NCI-H522 > 100 µM | Malme-3M > 100 µM | SK-MEL-2 > 100 µM | NCI-H226 > 100 µM | MDA-N > 100 µM | RPMI-8226 > 100 µM | MDA-MB-231 > 100 µM | MCF7 > 100 µM

Cc1c(-c2ccccc2)c(C#N)c2nnn(-c3ccc([N+](=O)[O-])cc3)c(=O)n12
inactive: UACC-62 37.1 µM | SR 7.31 µM | CCRF-CEM 8.43 µM | SK-MEL-28 32.6 µM | OVCAR-5 27.4 µM | ACHN 22.2 µM | HCC 2998 26.6 µM | HCT-116 24.5 µM | 786-0 5.14 µM | BT-549 26.9 µM | NCI-H522 10.2 µM | Malme-3M 24.2 µM | SK-MEL-2 8.91 µM | NCI-H226 13.2 µM | MDA-N 40.6 µM | RPMI-8226 20.7 µM | MDA-MB-231 8.15 µM | MCF7 16.2 µM
